Patent US20100311736A1, “PYRIDOSULFONAMIDE DERIVATIVES AS P13 KINASE INHIBITORS” (GlaxoSMithKline LLC, priority 2007, published 2010)
Read-outs that look alike come from different tables or passages of the source.

How the values were obtained:
PI3Kα = biological target: T1, PI3Kα (Homo sapiens, UniProt P42336); experiment: PI3K alpha enzyme inhibition (TR-FRET assay / Leadseeker SPA assay); type: biochemical; settings: in at least one experimental run; read-out: IC50 against PI3Kα
T1 construct: His; made in house
T1 sequence (P42336 whole entry): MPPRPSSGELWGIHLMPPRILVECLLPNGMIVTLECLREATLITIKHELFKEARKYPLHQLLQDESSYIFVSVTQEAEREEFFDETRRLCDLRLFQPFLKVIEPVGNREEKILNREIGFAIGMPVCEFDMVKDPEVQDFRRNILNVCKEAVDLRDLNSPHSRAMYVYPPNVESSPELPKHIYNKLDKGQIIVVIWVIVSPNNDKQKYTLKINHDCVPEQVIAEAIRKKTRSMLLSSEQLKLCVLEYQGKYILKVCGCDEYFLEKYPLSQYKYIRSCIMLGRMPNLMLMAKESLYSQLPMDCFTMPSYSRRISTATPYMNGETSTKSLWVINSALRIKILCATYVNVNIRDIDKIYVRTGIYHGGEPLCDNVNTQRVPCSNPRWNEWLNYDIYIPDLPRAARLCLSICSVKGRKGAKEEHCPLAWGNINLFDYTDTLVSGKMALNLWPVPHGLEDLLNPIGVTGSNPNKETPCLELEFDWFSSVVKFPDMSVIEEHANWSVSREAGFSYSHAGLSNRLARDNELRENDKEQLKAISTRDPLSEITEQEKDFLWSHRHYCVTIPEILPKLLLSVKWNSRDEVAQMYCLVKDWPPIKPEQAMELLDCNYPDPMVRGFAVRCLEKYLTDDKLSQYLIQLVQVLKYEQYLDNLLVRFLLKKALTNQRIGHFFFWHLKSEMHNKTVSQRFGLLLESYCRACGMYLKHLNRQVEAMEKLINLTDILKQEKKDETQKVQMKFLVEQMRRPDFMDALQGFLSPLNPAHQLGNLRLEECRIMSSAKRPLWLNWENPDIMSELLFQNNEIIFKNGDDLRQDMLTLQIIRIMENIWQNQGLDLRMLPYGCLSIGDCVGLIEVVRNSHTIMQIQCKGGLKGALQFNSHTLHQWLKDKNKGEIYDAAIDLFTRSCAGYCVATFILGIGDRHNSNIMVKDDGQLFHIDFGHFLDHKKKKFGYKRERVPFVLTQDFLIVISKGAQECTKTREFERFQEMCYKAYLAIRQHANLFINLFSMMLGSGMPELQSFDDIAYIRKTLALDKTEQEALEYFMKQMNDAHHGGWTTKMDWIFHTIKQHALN
T1 sequence (P27986 whole entry partner): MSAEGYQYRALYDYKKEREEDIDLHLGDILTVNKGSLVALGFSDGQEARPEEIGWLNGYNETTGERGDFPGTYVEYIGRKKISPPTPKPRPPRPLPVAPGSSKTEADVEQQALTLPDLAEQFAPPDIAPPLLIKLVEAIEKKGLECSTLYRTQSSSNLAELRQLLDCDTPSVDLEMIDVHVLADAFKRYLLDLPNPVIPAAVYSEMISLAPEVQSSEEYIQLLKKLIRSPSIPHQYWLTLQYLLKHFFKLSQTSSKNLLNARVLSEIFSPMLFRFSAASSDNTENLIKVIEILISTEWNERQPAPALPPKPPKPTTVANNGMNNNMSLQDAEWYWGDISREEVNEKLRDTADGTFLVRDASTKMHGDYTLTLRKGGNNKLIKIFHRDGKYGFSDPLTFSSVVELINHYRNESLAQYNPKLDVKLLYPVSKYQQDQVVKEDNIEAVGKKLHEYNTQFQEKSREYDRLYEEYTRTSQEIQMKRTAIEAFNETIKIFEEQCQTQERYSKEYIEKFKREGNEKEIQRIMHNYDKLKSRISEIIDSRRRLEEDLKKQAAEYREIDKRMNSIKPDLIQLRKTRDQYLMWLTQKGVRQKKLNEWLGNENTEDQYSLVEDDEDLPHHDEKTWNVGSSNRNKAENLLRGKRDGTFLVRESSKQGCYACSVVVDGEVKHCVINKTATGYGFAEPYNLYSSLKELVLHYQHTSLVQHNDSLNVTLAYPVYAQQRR
Description: Compounds of the present invention were tested according to the following assays and found as inhibitors of PI3 kinases, particularly PI3Kα. The exemplified compounds were tested and found active against PI3Kα. The IC50's ranged from about 1 nM to 10 μM.
The PI3-Kinase assay has been developed and optimized from a kit produced by Upstate (Millipore). Briefly, this kit contains a biotinylated PIP3 which forms a HTRF (homogeneous time-resolved fluorescence energy transfer) complex when mixed with a Europium labeled anti-GST monoclonal antibody, a GST tagged pleckstrin homology (PH) domain, and Streptavidin-Allophycocyanin (APC). The unlabeled PIP3 produced by PI 3-Kinase activity displaces biotin-PIP3 from the complex resulting in a loss of energy transfer and thus a decrease in signal. Millipore, PI 3-Kinase (human) HTRF™ Assay, technical document associated with catalog #33-017
Compounds are serially diluted (3-fold in 100% DMSO) across a polypropylene 120 μL mother plate from column 1 to column 12 and column 13 to column 24, leaving columns 6 and 18 containing only DMSO to yield 11 concentrations for each test compound. Once titrations are made, 0.1 μL is transferred to the assay plates (Greiner 784075). This assay plate contains three controls: column 6 with DMSO, and column 18 with alternating 20 μM wortmannin and 40 μM PIP3. […] The PIP3 control is dispensed into the plate manually via a matrix pipettor, 1 μL of 200 μM PIP3 in 1× Reaction buffer to wells 18 B, D, F, H, J, L, N, P.
The PI3-Kinase assay has been developed and optimized from a kit produced by Upstate (Millipore). The assay kit (cat: 33-017) contains seven reagents: 1) 4× Reaction Buffer, 2) PIP2 (1 mM), 3) Stop A, 4) Stop B, 5) Detection Mix A, 6) Detection Mix B, 7) Detection Mix C. In addition the following items were obtained or purchased, PI3Kinase (prepared in-house), 4× PI3K Detection Buffer (Millipore), dithiothreitol (Sigma, D-5545), Adenosine-5′-triphosphate (ATP, Sigma, A-6419), PIP3 (1,2-dioctanoyl-sn-glycero-3-[phosphoinositil-3,4,5-triphosphate]tetraammonium salt (Avanti polar lipids, 850186P), DMSO (Sigma, 472301), Wortmannin (Sigma, W-1628).
Prepare 1× PI3Kinase Reaction Buffer by diluting stock 1:4 with de-ionized water, freshly prepared DTT is added at a final concentration of 5 mM on the day of use. Enzyme addition and compound preincubation is initiated by the addition of 2.5 μL of 2× enzyme solution, PI3K alpha in 1× reaction buffer, to all wells using a Multidrop Combi. Plates are incubated at room temperature for 15 minutes. Substrate addition and reaction initiation is completed by the addition of 2.5 μL of 2× substrate solution, PIP2 and ATP in 1× reaction buffer, to all wells using a Multidrop Combi. […] Incubate one hour, evaluate the HTRF signal on the Envision plate reader. […]

Class I PI3-kinases = settings: cited from earlier work
CK2 protein kinase = CK2 protein kinase (Homo sapiens, UniProt P68400); settings: background statement; cited from earlier work
CK2 protein kinase, sequence (P68400 whole entry): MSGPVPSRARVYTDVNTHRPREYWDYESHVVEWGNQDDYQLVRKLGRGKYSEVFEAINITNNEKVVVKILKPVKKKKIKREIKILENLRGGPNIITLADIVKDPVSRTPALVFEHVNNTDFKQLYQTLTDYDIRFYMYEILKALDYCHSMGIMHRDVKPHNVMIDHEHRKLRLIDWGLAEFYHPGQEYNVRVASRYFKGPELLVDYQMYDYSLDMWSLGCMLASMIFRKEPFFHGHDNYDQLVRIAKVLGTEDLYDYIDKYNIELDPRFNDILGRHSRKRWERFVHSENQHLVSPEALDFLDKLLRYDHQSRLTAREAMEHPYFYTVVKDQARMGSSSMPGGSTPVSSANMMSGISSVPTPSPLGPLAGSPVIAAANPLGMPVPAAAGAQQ

Row | Compound | IC50 (PI3Kα) [nM] | also measured
1 | O=S(=O)(Nc1cc(-c2cn[nH]c2)cnc1Cl)c1ccccc1 [Example 22, N-[2-chloro-5-(1H-pyrazol-4-yl)-3-pyridinyl]benzenesulfonamide] | 316 | 
2 | O=S(=O)(Nc1cc(-c2ccc3ccccc3c2)cnc1Cl)c1ccccc1 [Example 27, N-[2-chloro-5-(2-naphthalenyl)-3-pyridinyl]benzenesulfonamide] | 631 | 
3 | CNc1ncc(-c2cnc(Cl)c(NS(=O)(=O)c3ccccc3)c2)cn1 [Example 29, N-{2-chloro-5-[2-(methylamino)-5-pyrimidinyl]-3-pyridinyl}benzenesulfonamide] | 100 | 
4 | O=S(=O)(Nc1cc(-c2ccc3nccn3c2)cnc1Cl)c1ccccc1 [Example 35, N-(2-chloro-5-imidazo[1,2-a]pyridin-6-yl-3-pyridinyl)benzenesulfonamide] | 13 | 
5 | O=c1cc(N2CCOCC2)oc2c(-c3ccccc3)cccc12 [LY294002] |  | IC50 (Class I PI3-kinases; Fruman et al. 1998, read-out: IC50 against each of these PI3-kinases): 15000 to 20000 nM; IC50 (CK2 protein kinase): 5000 to 10000 nM
6 | COC[C@H]1OC(=O)c2coc3c2[C@@]1(C)C1=C(C3=O)[C@@H]2CCC(=O)[C@@]2(C)C[C@H]1OC(C)=O [wortmannin] |  | IC50 (Class I PI3-kinases; wortmannin, background statement, read-out: IC50 against each of the various Class I PI3-kinases): 1 to 10 nM
